The values that follow come from patent publication US20240238186A1, “Topical Compositions Comprising (Glyco)Sphingolipids and/or (Glyco)Ceramides” (CarboCode S.A., priority 2021, published 2024).

Holding throughout (format): cell-based
Experiment [1] relates to Reconstructed Human Epidermis (RHE). The experiment can be described thus: Proteomic analysis (LC-MS/MS) of Reconstructed Human Epidermis topically treated with lipid in base emulsion. The note with it: lipid in base emulsion 24h, vs vehicle. From the text:
FIGS. 1 to 5 show heatmaps using a log 2 scale with up- or downregulation of respective proteins upon treatment with 0,01% (01), 0,03% (03) and 0,15% (15) of respective ceramide in vehicle as compared to vehicle without ceramide (VEH) (FIG. 1: LacCerNS, FIG. 2: GlcCerNS, FIG. 3: CerNP. FIG. 4: CerNG, FIG. 5: CerNS); detailed experimental setup explained in Example 4.
Material and methods: Reconstructed Human Epidermis (RHE) cell culture was used, as this system mimics the in vivo 3D structure of epidermal tissue as well as the conditions and processes that occur in normal epidermis. RHE were cultured using the medium provided by the manufacturer until analysis. RHE were maintained in survival for 24 hours, before RHE were topically treated with lipid in a base emulsion for 24h. 3 RHE were treated with base emulsion alone and 3 more remained untreated as a control batch (Ctrl). RHE were incubated under classical cell culture conditions (37° C., 5% CO2).
Sample preparation and LC-MS/MS analysis: Protein was extracted using the Pierce Total Protein Extraction Kit (Thermo Fisher) according to manufacturer's recommendations. The protein was mixed with Laemmli buffer and heated to 37° ° C. for 30 min. Protein concentration was determined by the BCA method and standardized for all samples. The samples were separated by SDS-PAGE and digested with trypsin overnight. The peptides generated were acidified and separated. The mass spectra were queried using Proteome Discoverer (version 2.5). The resulting MS/MS data were queried against the Homo sapiens proteome UP000005640 (20371 reviewed entries). Results were filtered based on unique peptides >2, and global peptide scores. Analyses were performed using Proteome Discoverer 2.5 to check for overall sample quality.
Bioinformatics and statistical analysis: Proteomic analysis returned a mean total of 34961 high-quality peptides corresponding to a mean 2422 identifiable and quantifiable RHE proteins among conditions. A summary of proteins differentially expressed within conditions is provided in Annexe 3. Proteins with a p-value≤0,05 in at least one of the concentrations tested for a lipid were considered significant and used for pairwise comparisons. Relevant proteins were classified by their biological processes and associated pathways using the publicly available gene ontology (GO) database provided by the Gene Ontology Consortium and Reactome. Interactome analysis was performed using Cytoscape combined with STRING.

The subject of experiment [2] is Human epidermal keratinocytes. Put plainly: Ceramide levels produced by keratinocytes, HPTLC. To be noted: 200 ppm in DMSO, 1 week; compared to untreated keratinocytes. The method, then: (§1) Human epidermal keratinocytes are obtained from a commercial vendor. The cells are isolated from juvenile foreskin or from adult normal human tissue collected from various sites that include face, breast, abdomen, and thigh. The cells are cultivated in a T25 flask using a commercial keratinocyte Growth Medium which is a serum-free medium and optimized for the in vitro cultivation of epidermal keratinocytes without feeder cells. A commercial growth supplement and calcium is added to a final concentration of 1.2 mM to induce differentiation.
(§2) Upon reaching cell confluence, the cells are treated with either 200 ppm glucosylceramide or 200 ppm lactosylceramide, each dissolved in dimethyl sulfoxide (DMSO) for 1 week. The cells are homogenised with 2 mL chloroform:methanol (2:1), and transferred to a vial containing Phosphate Buffered Saline (PBS). The homogeniser is rinsed twice with solvent and all rinses are together. The organic phase is evaporated to dryness.
Ceramide levels produced by the keratinocytes are measured by a modified high-performance thin layer chromatography (HPTLC) method. […] The plates are stained with 3% copper acetate in 8% phosphoric acid and charred at 160° C. for the quantitation of ceramides. Quantification is performed against known quantities of Ceramide NP by laser scanning densitometry. Each plate is scanned at 425 nm and quantified using WinCATS software.

Experiment [3] relates to Human epidermal keratinocytes. Put plainly: Gene expression in keratinocytes, qPCR. To be noted: 200 ppm in DMSO, 1 week. The method, then:
as §1, §2
Gene expression is determined by isolating RNA samples from the keratinocytes using a Qiagen RNeasy kit with DNase I digestion. Reverse transcription is performed using a high-capacity cDNA kit, cDNA samples of 40 ng are used for qPCR. Taqman gene expression assay is purchased commercially, and the qPCR reaction is performed using a fast amplifier. […] Relative gene expression is calculated by comparative CT method.
(In general: Real-time PCR tracks product formation cycle by cycle.)

Turning to `CCCCCCCCCCCCCCCCCC(=O)N[C@@H](CO)[C@H](O)CCCCCCCCCCCCCCC` [ceramide NG], in experiment [1], the “ATP synthase subunit delta (mitochondrial) regulation” value (from here on “ATP synthase subunit delta”) is listed as “upregulation”, the “ATP synthase subunit g (mitochondrial) regulation” value (“ATP synthase subunit g” for short) was “upregulation”, the “ceramide synthase 4 protein regulation” value is on record as “upregulation” and the “cytochrome c oxidase subunit 6C regulation” value was “upregulation”. In addition, in experiment [1], the loricrin protein regulation entry was “upregulation”; the “phosphomevalonate kinase protein regulation” value is given as “upregulation”; the “proteins of the mitochondrial respiratory chain, regulation” value (“proteins” for short) is listed as “upregulation”; the repetin protein regulation result is “upregulation”. Also, the “small proline-rich protein 2D regulation” value in experiment [1] was “upregulation”.

Consider `CCCCCCCCCCCCCCCCCC(=O)N[C@@H](CO)[C@H](O)[C@H](O)CCCCCCCCCCCCCC` [ceramide NP], for which, in experiment [1], the “NADH dehydrogenase [ubiquinone] iron-sulfur protein 8 (mitochondrial) regulation” value was “upregulation”, the “long-chain-fatty-acid-CoA ligase 3 protein regulation” value is “upregulation”, the “phosphomevalonate kinase protein regulation” value was “upregulation” and the “phosphopantothenate-cysteine ligase protein regulation” value is “upregulation”. In addition, in experiment [1], the “proteins” value is given as “upregulation” and the syndecan-1 protein regulation entry is listed as “upregulation”.

Turning to `CCCCCCCCCCCCC/C=C/[C@@H](O)[C@H](CO)NC(=O)CCCCCCCCCCCCCCCCC` [ceramide NS], in experiment [1], the cornifin-B protein regulation entry was “upregulation”, the filaggrin-2 protein regulation entry is “upregulation”, the kallikrein-5 protein regulation entry was “upregulation” and the “phosphomevalonate kinase protein regulation” value is on record as “upregulation”. Further, the syndecan-1 protein regulation result in experiment [1] is on record as “upregulation”.

With `CCCCCCCCCCCCC/C=C/[C@@H](O)[C@H](CO[C@@H]1O[C@H](CO)[C@@H](O)[C@H](O)[C@H]1O)NC(=O)CCCCCCCCCCCCCCCCC` [glucosyl ceramide], the “Total ceramides in keratinocytes” value in experiment [2] is “elevated”. In experiment [1], the “3-ketodihydrosphingosine reductase protein regulation” value was “upregulation”, the “ATP synthase subunit delta” value was “upregulation”, the “ATP synthase subunit g” value is “upregulation” and the “ATP-dependent zinc metalloprotease YME1L1 regulation” value is on record as “upregulation”. Besides, in experiment [1], the “NAD-dependent malic enzyme (mitochondrial) regulation” value is given as “upregulation”, the “NADH dehydrogenase [ubiquinone] 1 alpha subcomplex subunit 8 regulation” value is “upregulation”, the “NADH dehydrogenase [ubiquinone] iron-sulfur protein 2 (mitochondrial) regulation” value is given as “upregulation” and the “acetyl-coenzyme A synthetase (cytoplasmic) protein regulation” value is reported as “upregulation”. In experiment [1], the “cytochrome c oxidase subunit 6C regulation” value is recorded as “upregulation”; the “malonate-CoA ligase ACSF3 (mitochondrial) protein regulation” value is listed as “upregulation”; the “phosphomevalonate kinase protein regulation” value is on record as “upregulation”; the “proteins” value was “upregulation”. Further, in experiment [3], the IL8 gene expression result is reported as “reduced gene expression”, the TNF gene expression result is reported as “reduced gene expression”, the “expression of the ABCA12 gene” value is listed as “increases” and the involucrin gene expression entry is “increase in expression”. In experiment [3], the transglutaminase-1 gene expression entry is reported as “increase in expression” and the “β-glucocerebrosidase (GBA) expression” value is given as “Up-regulation”.

As for `CCCCCCCCCCCCC/C=C/[C@@H](O)[C@H](CO[C@@H]1O[C@H](CO)[C@@H](O[C@@H]2O[C@H](CO)[C@H](O)[C@H](O)[C@H]2O)[C@H](O)[C@H]1O)NC(=O)CCCCCCCCCCCCCCCCC` [lactosylceramide], the “Total ceramides in keratinocytes” value in experiment [2] is “elevated”. Further, in experiment [1], the “ATP synthase subunit delta” value is listed as “upregulation”, the “ATP synthase subunit g” value was “upregulation”, the “ATP-dependent zinc metalloprotease YME1L1 regulation” value is given as “upregulation” and the “NAD-dependent malic enzyme (mitochondrial) regulation” value is given as “upregulation”. In experiment [1], the “ceramide synthase 4 protein regulation” value is on record as “upregulation”, the “cytochrome b-c1 complex subunit 9 regulation” value was “upregulation”, the “cytochrome c oxidase subunit 2 regulation” value is recorded as “upregulation” and the “cytochrome c oxidase subunit 6C regulation” value is recorded as “upregulation”. Also, in experiment [1], the “cytochrome c oxidase subunit NDUFA4 regulation” value is listed as “upregulation”; the “phosphomevalonate kinase protein regulation” value is on record as “upregulation”; the “proteins” value is “upregulation”; the syndecan-1 protein regulation result is given as “upregulation”. For the same compound, in experiment [3], the IL8 gene expression entry is reported as “reduced gene expression”, the TNF gene expression entry is reported as “reduced gene expression”, the “expression of the ABCA12 gene” value is listed as “increases” and the involucrin gene expression result is “increase in expression”. Also, in experiment [3], the transglutaminase-1 gene expression entry was “increase in expression” and the “β-glucocerebrosidase (GBA) expression” value is recorded as “Up-regulation”.
